According to ChEMBL document CHEMBL3885881, “DrugMatrix”:

Species on record: Rattus norvegicus
Assay: DrugMatrix - Regimen: Daily Repeat
Assay type: toxicity, organism-based, Sprague-Dawley
Design: regimen Daily Repeat, gender Male, age 6-8 weeks
Conditions: in vivo, po, route oral GAVAGE, vehicle .5 % CMC; for BASOPHIL / EOSINOPHIL / ERYTHROCYTE COUNT / HEMATOCRIT / HEMOGLOBIN / LEUKOCYTE COUNT / LYMPHOCYTE / MEAN CORPUSCULAR HEMOGLOBIN / MEAN CORPUSCULAR HEMOGLOBIN CONCENTRATION / MEAN CORPUSCULAR VOLUME / MONOCYTE / NEUTROPHIL / PLATELET COUNT: tissue Blood; for ALANINE AMINOTRANSFERASE / ALBUMIN / ALKALINE PHOSPHATASE / ASPARTATE AMINOTRANSFERASE / BLOOD UREA NITROGEN / CHLORIDE / CHOLESTEROL / CREATINE PHOSPHOKINASE / CREATININE / GLUCOSE / PHOSPHORUS / POTASSIUM / SODIUM / TOTAL BILIRUBIN / TOTAL PROTEIN: tissue Plasma
[1] = 50 mg/kg, 72 h, dose level Low, time 3 day
[2] = 50 mg/kg, 120 h, dose level Low, time 5 day
[3] = 1200 mg/kg, 72 h, dose level High, time 3 day
[4] = 1200 mg/kg, 120 h, dose level High, time 5 day

CCN1CCC[C@H]1CNC(=O)c1cc(S(N)(=O)=O)ccc1OC [LEVOSULPIRIDE]
BASOPHIL [1]: 0%
EOSINOPHIL [1]: 0.33%
ERYTHROCYTE COUNT [1]: 5.59 x10E6/uL
HEMATOCRIT [1]: 33.77%
HEMOGLOBIN [1]: 13.77 G/DL
LEUKOCYTE COUNT [1]: 14.5 x10E3/uL
LYMPHOCYTE [1]: 87%
MEAN CORPUSCULAR HEMOGLOBIN [1]: 24.6 pg
MEAN CORPUSCULAR HEMOGLOBIN CONCENTRATION [1]: 40.77 G/DL
MEAN CORPUSCULAR VOLUME [1]: 60.4 fL
MONOCYTE [1]: 1.67%
NEUTROPHIL [1]: 11%
PLATELET COUNT [1]: 1162.67 x10E3/uL
ALANINE AMINOTRANSFERASE [1]: 41 u/L
ALBUMIN [1]: 3.7 G/DL
ALKALINE PHOSPHATASE [1]: 441.67 u/L
ASPARTATE AMINOTRANSFERASE [1]: 64 u/L
BLOOD UREA NITROGEN [1]: 13.33 mg/dL
CHLORIDE [1]: 106.33 MEQ/L
CHOLESTEROL [1]: 70.33 mg/dL
CREATINE PHOSPHOKINASE [1]: 137 u/L
CREATININE [1]: 0.5 mg/dL
GLUCOSE [1]: 187.67 mg/dL
PHOSPHORUS [1]: 11.53 mg/dL
POTASSIUM [1]: 6.6 MEQ/L
SODIUM [1]: 150.33 MEQ/L
TOTAL BILIRUBIN [1]: 0.57 mg/dL
TOTAL PROTEIN [1]: 6 G/DL
BASOPHIL [2]: 0%
EOSINOPHIL [2]: 0.33%
ERYTHROCYTE COUNT [2]: 6.32 x10E6/uL
HEMATOCRIT [2]: 37.23%
HEMOGLOBIN [2]: 14.57 G/DL
LEUKOCYTE COUNT [2]: 13.63 x10E3/uL
LYMPHOCYTE [2]: 80.67%
MEAN CORPUSCULAR HEMOGLOBIN [2]: 23.03 pg
MEAN CORPUSCULAR HEMOGLOBIN CONCENTRATION [2]: 39.13 G/DL
MEAN CORPUSCULAR VOLUME [2]: 58.9 fL
MONOCYTE [2]: 2.67%
NEUTROPHIL [2]: 16.33%
PLATELET COUNT [2]: 1180.67 x10E3/uL
ALANINE AMINOTRANSFERASE [2]: 42 u/L
ALBUMIN [2]: 3.7 G/DL
ALKALINE PHOSPHATASE [2]: 336 u/L
ASPARTATE AMINOTRANSFERASE [2]: 62.33 u/L
BLOOD UREA NITROGEN [2]: 13 mg/dL
CHLORIDE [2]: 106 MEQ/L
CHOLESTEROL [2]: 67.67 mg/dL
CREATINE PHOSPHOKINASE [2]: 137.33 u/L
CREATININE [2]: 0.57 mg/dL
GLUCOSE [2]: 188.67 mg/dL
PHOSPHORUS [2]: 10.97 mg/dL
POTASSIUM [2]: 6.83 MEQ/L
SODIUM [2]: 150.67 MEQ/L
TOTAL BILIRUBIN [2]: 0.4 mg/dL
TOTAL PROTEIN [2]: 5.97 G/DL
BASOPHIL [3]: 0%
EOSINOPHIL [3]: 0.5%
ERYTHROCYTE COUNT [3]: 6.49 x10E6/uL
HEMATOCRIT [3]: 38.15%
HEMOGLOBIN [3]: 15.2 G/DL
LEUKOCYTE COUNT [3]: 14.55 x10E3/uL
LYMPHOCYTE [3]: 86%
MEAN CORPUSCULAR HEMOGLOBIN [3]: 23.4 pg
MEAN CORPUSCULAR HEMOGLOBIN CONCENTRATION [3]: 39.85 G/DL
MEAN CORPUSCULAR VOLUME [3]: 58.75 fL
MONOCYTE [3]: 0.5%
NEUTROPHIL [3]: 13%
PLATELET COUNT [3]: 1325.5 x10E3/uL
ALANINE AMINOTRANSFERASE [3]: 42 u/L
ALBUMIN [3]: 4 G/DL
ALKALINE PHOSPHATASE [3]: 363 u/L
ASPARTATE AMINOTRANSFERASE [3]: 58.33 u/L
BLOOD UREA NITROGEN [3]: 16.67 mg/dL
CHLORIDE [3]: 104 MEQ/L
CHOLESTEROL [3]: 80 mg/dL
CREATINE PHOSPHOKINASE [3]: 154.33 u/L
CREATININE [3]: 0.6 mg/dL
GLUCOSE [3]: 176.67 mg/dL
PHOSPHORUS [3]: 12.6 mg/dL
POTASSIUM [3]: 7.23 MEQ/L
SODIUM [3]: 150 MEQ/L
TOTAL BILIRUBIN [3]: 0.67 mg/dL
BASOPHIL [4]: 0%
EOSINOPHIL [4]: 0.5%
ERYTHROCYTE COUNT [4]: 5.88 x10E6/uL
HEMATOCRIT [4]: 35.5%
HEMOGLOBIN [4]: 15 G/DL
LEUKOCYTE COUNT [4]: 12.3 x10E3/uL
LYMPHOCYTE [4]: 85.5%
MEAN CORPUSCULAR HEMOGLOBIN [4]: 25.5 pg
MEAN CORPUSCULAR HEMOGLOBIN CONCENTRATION [4]: 42.4 G/DL
MEAN CORPUSCULAR VOLUME [4]: 60.25 fL
MONOCYTE [4]: 4.5%
NEUTROPHIL [4]: 9.5%
PLATELET COUNT [4]: 1166 x10E3/uL
ALANINE AMINOTRANSFERASE [4]: 43 u/L
ALBUMIN [4]: 3.65 G/DL
ALKALINE PHOSPHATASE [4]: 219.5 u/L
ASPARTATE AMINOTRANSFERASE [4]: 64 u/L
BLOOD UREA NITROGEN [4]: 16 mg/dL
CHLORIDE [4]: 106.5 MEQ/L
CHOLESTEROL [4]: 65.5 mg/dL
CREATINE PHOSPHOKINASE [4]: 164 u/L
CREATININE [4]: 0.6 mg/dL
GLUCOSE [4]: 166.5 mg/dL
PHOSPHORUS [4]: 11.95 mg/dL
POTASSIUM [4]: 6.7 MEQ/L
SODIUM [4]: 151.5 MEQ/L
TOTAL BILIRUBIN [4]: 0.35 mg/dL
TOTAL PROTEIN [4]: 6 G/DL
